In series [1] the test system is Cerebral cortex neuron. The experiment in a line: Neuroprotective activity against glutamate-induced neuronal cell death in Sprague-Dawley rat primary cortical neuron at 0.25 uM pretreated for 24 hrs prior to glutamate challenge measured after 24 hrs by MTT assay. Type of series: functional, cell-based. In general terms: Formazan colour is commonly taken as a measure of viable cells.

Series [2] concerns Cerebral cortex neuron. In words: Neuroprotective activity against glutamate-induced neuronal cell death in Sprague-Dawley rat primary cortical neuron at 0.25 uM administered simultaneously with glutamate after 24 hrs by MTT assay. Type of series: functional, cell-based.
Series [3] is described as follows: Radical scavenging activity assessed as rate constant. Type of series: physicochemical.
Series [4] has as its system Cerebral cortex neuron. The experiment in a line: Neuroprotective activity against glutamate-induced neuronal cell death in Sprague-Dawley rat primary cortical neuron at 2.5 uM pretreated for 24 hrs prior to glutamate challenge measured after 24 hrs by MTT assay. Type of series: functional, cell-based.
A short description of series [5]: Radical scavenging activity assessed as relative reactivity against beta-carotene in MeO-AMVN solution. Type of series: physicochemical.
Series [6] is described as follows: Radical scavenging activity assessed as relative reactivity against beta-carotene in 2,2-azobis[2-(2-imidazolin-2-yl)-propane]dihydrochloride solution. Type of series: physicochemical.
Series [7] has as its system PC-12. The experiment in a line: Cytoprotective activity against 13(S)-HpODE-induced cell death in rat PC12 cells pretreated for 24 hrs prior to 13(S)-HpODE challenge measured after 24 hrs by MTT assay. Type of series: functional, cell-based.
In the next series the test system is THP-1. The experiment in a line: Cytoprotective activity against LPS-induced cell death in human THP1 cells at 10 uM pretreated for 24 hrs prior to LPS challenge measured after 24 hrs by MTT assay. Type of series: functional, cell-based.
Series [8] concerns the target T1, Prostaglandin G/H synthase 2 (Homo sapiens, UniProt P35354).
T1 sequence (P35354 whole entry): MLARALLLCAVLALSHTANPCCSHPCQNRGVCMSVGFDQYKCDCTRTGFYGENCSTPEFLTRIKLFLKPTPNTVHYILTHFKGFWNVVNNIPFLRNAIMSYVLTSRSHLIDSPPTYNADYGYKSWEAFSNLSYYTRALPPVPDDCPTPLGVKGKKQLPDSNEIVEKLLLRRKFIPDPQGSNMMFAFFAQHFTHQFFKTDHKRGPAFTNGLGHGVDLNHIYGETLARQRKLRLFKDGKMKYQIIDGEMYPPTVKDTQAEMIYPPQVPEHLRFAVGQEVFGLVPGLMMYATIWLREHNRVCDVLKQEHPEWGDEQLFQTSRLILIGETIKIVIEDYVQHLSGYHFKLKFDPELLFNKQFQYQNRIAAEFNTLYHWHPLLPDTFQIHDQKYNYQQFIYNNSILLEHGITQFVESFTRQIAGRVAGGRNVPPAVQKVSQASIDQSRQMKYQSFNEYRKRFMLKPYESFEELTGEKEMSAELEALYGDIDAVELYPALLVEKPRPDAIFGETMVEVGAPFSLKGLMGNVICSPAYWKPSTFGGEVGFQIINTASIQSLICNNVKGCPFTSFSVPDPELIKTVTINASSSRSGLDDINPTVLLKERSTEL
In words: Inhibition of COX2.

The target in series [9] is T2, Polyunsaturated fatty acid 5-lipoxygenase (Homo sapiens, UniProt P09917).
T2 sequence (P09917 whole entry): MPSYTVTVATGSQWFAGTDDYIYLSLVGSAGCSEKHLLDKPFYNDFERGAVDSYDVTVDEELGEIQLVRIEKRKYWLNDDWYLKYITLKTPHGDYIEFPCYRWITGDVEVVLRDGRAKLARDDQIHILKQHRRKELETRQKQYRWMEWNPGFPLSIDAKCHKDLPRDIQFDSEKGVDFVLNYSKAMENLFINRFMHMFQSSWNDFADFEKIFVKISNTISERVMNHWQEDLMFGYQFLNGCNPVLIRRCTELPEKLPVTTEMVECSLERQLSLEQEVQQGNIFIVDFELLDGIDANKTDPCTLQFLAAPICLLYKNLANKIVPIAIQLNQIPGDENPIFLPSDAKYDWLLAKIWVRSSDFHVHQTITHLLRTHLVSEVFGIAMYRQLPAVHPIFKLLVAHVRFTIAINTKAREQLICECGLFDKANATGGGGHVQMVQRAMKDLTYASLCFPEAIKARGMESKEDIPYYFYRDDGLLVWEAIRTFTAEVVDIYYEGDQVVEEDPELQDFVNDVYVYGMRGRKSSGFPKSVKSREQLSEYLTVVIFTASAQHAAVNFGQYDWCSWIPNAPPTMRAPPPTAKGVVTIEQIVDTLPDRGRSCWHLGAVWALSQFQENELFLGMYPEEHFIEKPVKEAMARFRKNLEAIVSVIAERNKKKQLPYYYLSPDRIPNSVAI
In words: Inhibition of 5LOX.

Series [10] concerns Cerebral cortex neuron. In words: Neuroprotective activity against glutamate-induced neuronal cell death in Sprague-Dawley rat primary cortical neuron at 1 uM pretreated for 24 hrs prior to glutamate challenge measured after 24 hrs by MTT assay. Type of series: functional, cell-based.
A short description of series [11]: Radical scavenging activity assessed as relative reactivity against beta-carotene in benzene solution. Type of series: physicochemical.
A short description of series [12]: Radical scavenging activity assessed as suppression of MeO-AMVN-induced beta-carotene oxidation in benzene solution. Type of series: physicochemical.
Series [13] concerns Cerebral cortex neuron. In words: Neuroprotective activity against glutamate-induced neuronal cell death in Sprague-Dawley rat primary cortical neuron at 1 uM administered simultaneously with glutamate after 24 hrs by MTT assay. Type of series: functional, cell-based.
Series [14] addresses Prostaglandin G/H synthase 1 (Homo sapiens, UniProt P23219). In words: Inhibition of COX1.
In series [15] the test system is PC-12. In words: Cytoprotective activity against LPS-induced cell death in rat PC12 cells at 1 to 50 uM pretreated for 24 hrs prior to LPS challenge measured after 24 hrs by MTT assay. Type of series: functional, cell-based.
For series [16], the system named is PC-12. The experiment in a line: Cytoprotective activity against 6-OHDA-induced cell death in rat PC12 cells at 25 uM pretreated for 24 hrs prior to 6-OHDA challenge measured after 24 hrs by MTT assay. Type of series: functional, cell-based.
The subject of series [17] is PC-12. In words: Cytoprotective activity against 6-OHDA-induced cell death in rat PC12 cells at 50 uM pretreated for 24 hrs prior to 6-OHDA challenge measured after 24 hrs by MTT assay. Type of series: functional, cell-based.

The text below walks through data of ChEMBL document CHEMBL1152306, “Characterization of novel furan compounds on the basis of their radical scavenging activity and cytoprotective effects against glutamate- and lipopolysaccharide-induced insults” (Bioorg Med Chem, 2008).

Calls of active or inactive are those of the source. The calls are words filed in the database; no cut-off is given here.

Prostaglandin G/H synthase 1, sequence (P23219 whole entry): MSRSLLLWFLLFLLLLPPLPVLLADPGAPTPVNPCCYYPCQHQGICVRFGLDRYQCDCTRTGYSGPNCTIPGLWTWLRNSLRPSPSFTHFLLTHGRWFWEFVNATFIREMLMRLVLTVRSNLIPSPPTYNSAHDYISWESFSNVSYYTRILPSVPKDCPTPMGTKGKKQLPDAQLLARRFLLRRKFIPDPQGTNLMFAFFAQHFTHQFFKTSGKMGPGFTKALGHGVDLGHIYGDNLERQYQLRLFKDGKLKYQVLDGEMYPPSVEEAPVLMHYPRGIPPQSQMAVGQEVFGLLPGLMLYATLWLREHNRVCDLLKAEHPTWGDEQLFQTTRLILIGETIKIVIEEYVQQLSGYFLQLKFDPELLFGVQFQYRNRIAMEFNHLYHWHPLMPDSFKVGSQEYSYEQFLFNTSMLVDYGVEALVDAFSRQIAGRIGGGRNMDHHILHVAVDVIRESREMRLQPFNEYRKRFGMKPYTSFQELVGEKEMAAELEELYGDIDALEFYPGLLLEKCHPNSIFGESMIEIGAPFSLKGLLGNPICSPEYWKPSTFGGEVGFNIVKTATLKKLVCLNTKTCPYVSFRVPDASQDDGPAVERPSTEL

For `CC(C)=CCC/C(C)=C/CC/C(C)=C/CC[C@]1(C)CCc2c(C)c(O)c(C)c(C)c2O1`, the result with Cerebral cortex neuron [1] and with Cerebral cortex neuron [2] was Active.
For `Cc1c(C)c2c(c(C)c1O)CC[C@@](C)(CCC[C@H](C)CCC[C@H](C)CCCC(C)C)O2` [ALPHA-TOCOPHEROL], the K in series [3] is recorded as 1 ×10⁶ /M/s. In addition, in the series on Cerebral cortex neuron [4], the result was Active.
For orientation: IC50 means the midpoint of a concentration-inhibition curve. Low readings indicate higher potency, high ones lower potency. In the case of `CCCCCCc1ccc(-c2ccc(O)c(OC)c2)o1`, the Activity in [5] is recorded as 1.3; in series [6], 1; in [11] it was 0.62; in [12], “Dose-dependent effect”. Besides, the result with PC-12 [7], in the series on THP-1, in the series with Cerebral cortex neuron [10], with Cerebral cortex neuron [13] and in the series on PC-12 [15] was Active. The IC50 in series [8] came to 8.4 µM; in [9] it was 2600 nM; in [14] it was 62 µM. Further, the K in series [3] was found to be 3 ×10⁴ /M/s.
Consider `CCCCC[C@H](O)CC(=O)CCc1ccc(O)c(OC)c1` [GINGEROL], for which the IC50 worked out at 125 µM in series [8] and 129 µM in [14].
With `CCCCC/C=C/C(=O)CCc1ccc(O)c(OC)c1` [SHOGAOL], in [9], it took 7400 nM to reach half-maximal inhibition (IC50).
With `CCc1ccc(-c2ccc(O)c(OC)c2)o1`, the Activity in series [5] is 1.1; in series [6], 0.69; in series [11] it was 0.58; in series [12], “Dose-dependent effect”. In addition, the outcome in the series on PC-12 [7], in the series on THP-1, in the series with PC-12 [16], in the series on PC-12 [17] and in the series with PC-12 [15] was Active. In addition, the IC50 came out at 9.4 µM in series [8], 530 nM in [9] and 13 µM in series [14]. Also, the K in series [3] is recorded as 2 ×10⁴ /M/s.
